In paper PMC7127386 (Antiviral Research, 2020):
Entries after “also recorded” stand apart in the source; their conditions may differ. Where two headings read alike, the source gives them in different places.

Tests used:
SARS-CoV-2 virus [1] = format: cell-based
SARS-CoV-2 virus [2] = format: cell-based; remark: listed apart in the source
SARS-CoV-2 virus [3] = format: cell-based; details: read-out: Reduction in infectious virus (EC50)
SARS-CoV-2 virus [4] = format: cell-based; details: read-out: Reduction in viral RNA copy (EC50)

| SMILES | Antiviral effect against SARS-CoV-2 virus in vitro (in words) (SARS-CoV-2 virus [1]) | CPE inhibition (lowest concentration of the compound with 100% CPE inhibition) (SARS-CoV-2 virus [2]) | further results |
| --- | --- | --- | --- |
| NC(=O)c1ncn([C@@H]2O[C@H](CO)[C@@H](O)[C@H]2O)n1 [Ribavirin] | no apparent antiviral effect; also recorded: did not inhibit viral replication | – | Inhibition of SARS-CoV-2 (in words) (SARS-CoV-2 virus [1]): no inhibition |
| CN[C@H](CC(C)C)C(=O)N[C@H]1C(=O)N[C@@H](CC(N)=O)C(=O)N[C@H]2C(=O)N[C@H]3C(=O)N[C@H](C(=O)N[C@H](C(=O)O)c4cc(O)cc(O)c4-c4cc3ccc4O)[C@H](O[C@H]3C[C@](C)(N)[C@@H](O)[C@H](C)O3)c3ccc(c(Cl)c3)Oc3cc2cc(c3O[C@@H]2O[C@H](CO)[C@@H](O)[C@H](O)[C@H]2O[C@H]2C[C@](C)(NCc3ccc(-c4ccc(Cl)cc4)cc3)[C@@H](O)[C@H](C)O2)Oc2ccc(cc2Cl)[C@H]1O.O=P(O)(O)O.O=P(O)(O)O [Oritavancin diphosphate] | – | >100 µM | – |
| C[C@H](Cn1cnc2c(N)ncnc21)OCP(=O)(O)O [Tenofovor] | did not inhibit viral replication | – | – |
| CN[C@H]1C(=O)N[C@@H]2Cc3ccc(cc3)Oc3cc4cc(c3O[C@@H]3O[C@H](C(=O)O)[C@@H](O)[C@H](O)[C@H]3NC(=O)CCCCCCCCC(C)C)Oc3ccc(cc3Cl)[C@@H](O)[C@@H]3NC(=O)[C@H](NC(=O)[C@@H]4NC(=O)[C@@H](NC2=O)c2cc(cc(O)c2Cl)Oc2cc1ccc2O)c1ccc(O)c(c1)-c1c(O[C@H]2O[C@H](CO)[C@@H](O)[C@H](O)[C@@H]2O)cc(O)cc1[C@@H](C(=O)NCCCN(C)C)NC3=O.Cl [Dalbavancin hydrochloride] | – | >100 µM | – |
| NC(=O)c1nc(F)c[nH]c1=O [Favipiravir] | no apparent antiviral effect; also recorded: did not inhibit viral replication | – | Inhibition of SARS-CoV-2 (in words) (SARS-CoV-2 virus [1]): no inhibition |
| [N-]=[N+]=N[C@]1(CO)O[C@@H](n2ccc(N)nc2=O)[C@H](O)[C@@H]1O [R-1479] | did not inhibit viral replication | >100 µM | CC50 (Vero E6 cells): > 100 µM |
| Nc1ncnc2c([C@@H]3N[C@H](CO)[C@@H](O)[C@H]3O)c[nH]c12 [Galidesivir] | did not inhibit viral replication | – | – |
| Nc1nc(F)nc2c1ncn2[C@@H]1O[C@H](COP(=O)(O)O)[C@@H](O)[C@@H]1O [Fludarabine phosphate] | did not inhibit viral replication | – | – |
| CCC(CC)O[C@@H]1C=C(C(=O)O)C[C@H](N)[C@H]1NC(C)=O [Oseltamivir carboxylate] | no apparent antiviral effect | >100 µM | EC50 (SARS-CoV-2 virus [3]): > 100 µM; CC50 (Vero E6 cells): > 100 µM; EC50 (SARS-CoV-2 virus [4]): > 100 µM |
